For 3 molecules, IC50 results are on record in patent publication US20160304556A1, “[…] ACTIVE COMPOUNDS AND THEIR METHODS OF USE” (AGIOS PHARMACEUTICALS, INC, priority 2012, published 2016).

The target of one assay is IDH1 R132C (Homo sapiens, UniProt O75874, R132C). As to the kind of experiment: In vitro NADPH depletion assay for IDH1m R132C inhibitors. The format is biochemical. The settings on record: enzyme, diaphorase/resazurin readout, read-out: IDH R132C IC50. In short, it runs like this: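 Homodimeric IDH1 R132C was preincubated with compound for 60 min at RT in phosphate buffer (50 mM potassium phosphate pH 6.5, 40 mM sodium carbonate, 5 mM MgCl2, 10% glycerol, 0.03% BSA). The αKG→2-HG reaction was started with substrate mix (20 µM NADPH, 1 mM αKG) and ran 90 min at RT. Remaining NADPH was read by diaphorase/resazurin fluorescence (Ex544/Em590).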

The target of another assay is IDH1 R132H (Homo sapiens, UniProt O75874, R132H). The assay can be described thus: In vitro NADPH depletion assay for IDH1m R132H inhibitors. The format is biochemical. The settings on record: enzyme, diaphorase/resazurin readout, read-out: IDH R132H IC50. The essentials: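 IDH1-R132H homodimer […] was preincubated with compound for 60 min at room temperature in 20 mM Tris-Cl pH 7.5, 150 mM NaCl, 10 mM MgCl2, 0.05% BSA, 2 mM b-mercaptoethanol. Substrate mix (NADPH, 5 mM alpha-ketoglutarate) then reacted for 90 min. Remaining NADPH was read by diaphorase/resazurin fluorescence at Ex544/Em590.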

The next assay relates to HT1080 cells. As to the kind of experiment: Cellular assay, inhibition of 2-HG production (LC-MS) in HT1080 cells. The assay is classed as cell-based. Conditions: Homo sapiens, HT-1080, 48 hours, LC-MS of media. The essentials:
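HT1080 cells (5000/well) were incubated 48 hours with compound, 0.2% DMSO final. Medium 2-HG was quantified by LC-MS, and IC50 was taken as the concentration giving 50% reduction versus DMSO control. Viability was read by CellTiter-Glo luminescence at 72 hours.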

Sequence of IDH1 R132H (O75874 whole entry R132H): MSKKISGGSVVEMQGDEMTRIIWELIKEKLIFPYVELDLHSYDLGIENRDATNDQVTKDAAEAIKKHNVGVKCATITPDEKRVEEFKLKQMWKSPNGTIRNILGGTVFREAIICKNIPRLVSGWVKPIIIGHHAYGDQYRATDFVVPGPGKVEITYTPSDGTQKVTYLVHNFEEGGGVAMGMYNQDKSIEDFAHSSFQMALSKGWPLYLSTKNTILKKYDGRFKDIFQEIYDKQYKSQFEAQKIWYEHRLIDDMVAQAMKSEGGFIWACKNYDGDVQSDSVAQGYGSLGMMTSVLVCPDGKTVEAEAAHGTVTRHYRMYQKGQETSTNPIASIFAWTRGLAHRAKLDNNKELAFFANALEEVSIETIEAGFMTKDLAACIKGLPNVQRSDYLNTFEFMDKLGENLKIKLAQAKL
Sequence of IDH1 R132C (O75874 whole entry R132C): as the sequence (O75874 whole entry R132H) above, with H132C counted along it

Regarding `C[C@H]1CC[C@@H](C(=O)N(c2cccc(F)c2)[C@H](C(=O)NC2CCC(F)(F)CC2)c2ccccc2Cl)N1c1ncccn1` [Compound 111, (2S,5S)—N—((S)-1-(2-chlorophenyl)-2-(4,4-difluorocyclohexylamino)-2-oxoethyl)-N-(3-fluorophenyl)-5-methyl-1-(pyrimidin-2-yl)pyrrolidine-2-carboxamide], the concentration for half-maximal inhibition (IC50) at IDH1 R132C is not above 100 nM; at IDH1 R132H it was not above 100 nM; in the assay with HT1080 cells, 100 to 500 nM.

As for `C[C@H]1CC[C@@H](C(=O)N(c2cccc(F)c2)[C@@H](C(=O)NC2CC(F)(F)C2)c2ccccc2Cl)N1c1ncccn1` [Compound 112, (2S,5S)—N—((R)-1-(2-chlorophenyl)-2-(3,3-difluorocyclobutylamino)-2-oxoethyl)-N-(3-fluorophenyl)-5-methyl-1-(pyrimidin-2-yl)pyrrolidine-2-carboxamide], the IC50 is not above 100 nM on IDH1 R132C, 100 to 500 nM on IDH1 R132H and 100 to 500 nM with HT1080 cells.

For `C[C@H]1CC[C@@H](C(=O)N(c2cccc(F)c2)[C@H](C(=O)NC2CC(F)(F)C2)c2ccccc2Cl)N1c1ncccn1` [Compound 113, (2S,5S)—N—((S)-1-(2-chlorophenyl)-2-(3,3-difluorocyclobutylamino)-2-oxoethyl)-N-(3-fluorophenyl)-5-methyl-1-(pyrimidin-2-yl)pyrrolidine-2-carboxamide], the half-maximal inhibitory concentration (IC50) at IDH1 R132C was not above 100 nM; at IDH1 R132H it was not above 100 nM; in the assay on HT1080 cells it was 100 to 500 nM.
